{"source": "BindingDB's records for doi:10.1016/s0028-3908(00)00022-8", "about": "(University of Frankfurt, 2000)", "key": {"ATP receptor [1]": {"biological_target": "T1, ATP receptor (Xenopus sp., UniProt F6VH38)", "T1 sequence (F6VH38 whole entry)": "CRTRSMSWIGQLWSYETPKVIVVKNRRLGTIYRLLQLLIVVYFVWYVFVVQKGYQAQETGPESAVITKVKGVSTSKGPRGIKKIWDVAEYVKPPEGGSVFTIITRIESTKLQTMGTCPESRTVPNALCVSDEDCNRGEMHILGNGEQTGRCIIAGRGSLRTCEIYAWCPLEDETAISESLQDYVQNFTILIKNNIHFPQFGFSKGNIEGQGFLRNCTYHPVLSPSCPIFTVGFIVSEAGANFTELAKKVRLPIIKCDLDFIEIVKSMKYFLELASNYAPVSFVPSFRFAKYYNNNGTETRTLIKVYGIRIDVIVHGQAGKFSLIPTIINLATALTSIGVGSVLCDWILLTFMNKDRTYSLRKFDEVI"}, "ATP receptor [2]": {"biological_target": "T2, ATP receptor (Xenopus sp., UniProt Q64F95)", "T2 sequence (Q64F95 whole entry)": "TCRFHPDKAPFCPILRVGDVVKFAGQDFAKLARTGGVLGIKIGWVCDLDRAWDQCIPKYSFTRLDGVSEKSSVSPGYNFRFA"}, "P2X purinoceptor": {"biological_target": "T3, P2X purinoceptor (Xenopus sp., UniProt Q9DDP1)", "T3 sequence (Q9DDP1 whole entry)": "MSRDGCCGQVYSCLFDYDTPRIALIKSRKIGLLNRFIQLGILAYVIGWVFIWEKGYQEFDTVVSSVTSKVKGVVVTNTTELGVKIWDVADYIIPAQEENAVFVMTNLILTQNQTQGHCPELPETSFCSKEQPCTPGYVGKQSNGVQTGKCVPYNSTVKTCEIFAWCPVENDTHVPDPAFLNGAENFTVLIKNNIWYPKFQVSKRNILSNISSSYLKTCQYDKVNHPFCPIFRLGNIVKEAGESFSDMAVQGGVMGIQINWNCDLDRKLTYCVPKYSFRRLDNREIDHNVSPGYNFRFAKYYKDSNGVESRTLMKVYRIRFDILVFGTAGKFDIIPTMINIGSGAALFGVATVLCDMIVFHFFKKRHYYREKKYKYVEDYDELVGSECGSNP"}}}
{"smiles": "O=C(Nc1ccc(C(=O)Nc2ccc(C(=O)Nc3ccc(S(=O)(=O)O)c4cc(S(=O)(=O)O)cc(S(=O)(=O)O)c34)cc2)cc1)Nc1ccc(C(=O)Nc2ccc(C(=O)Nc3ccc(S(=O)(=O)O)c4cc(S(=O)(=O)O)cc(S(=O)(=O)O)c34)cc2)cc1", "note": "[CAS_5311315]", "values": [{"measurement": "Ki", "setting": "ATP receptor [1]", "value": 770, "unit": "nM"}, {"measurement": "Ki", "setting": "ATP receptor [2]", "value": 1620, "unit": "nM"}, {"measurement": "Ki", "setting": "P2X purinoceptor", "value": "> 10000", "unit": "nM"}]}
